Drawing on PubChem BioAssay (NCI), this text covers GI50 and TGI for 15 molecules.

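Step 1: Grow cells in 96-well plates. Step 2: Expose to compound for 48 hours at 5 concentrations. Step 3: Interpolate endpoints linearly; if unreached, use highest concentration. Here, GI50 denotes the concentration required for 50% inhibition of growth. TGI denotes the concentration required for complete inhibition of growth.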 Where only a bound is given, the exact number is not on record here.

Test in all cases: NCI anticancer screen, dose series, 48 h
Assay [1] deals with M14 melanoma.
The test system of assay [2] is MCF7 breast.
For assay [3], the system named is OVCAR-3 ovarian.
In assay [4] the test system is MDA-MB-435.
Assay [5] concerns HT29 colon.
The subject of assay [6] is MOLT-4 leukemia.
In assay [7] the test system is U251 CNS.
Assay [8] deals with RXF 393 renal.
For assay [9], the system named is K-562 leukemia.
The subject of assay [10] is RPMI-8226 leukemia.

In the case of `O=C(CCN1CCN(c2cnc3ccccc3n2)CC1)c1csc2ccccc12`, the GI50 is 75.2 µM in assay [1]; 18.1 µM in assay [2]; 25 µM in assay [3]; over 100 µM in assay [4]; 38.4 µM in [5]; 35.7 µM in assay [6]. Besides, the GI50 in [7] is 47.8 µM; in assay [8], 18.7 µM; in assay [9], 28.6 µM; in assay [10], 9.4 µM. Besides, the TGI is over 100 µM in [1]; 48.6 µM in assay [2]; 61.5 µM in assay [3]; over 100 µM in assay [4]; over 100 µM in assay [5]; over 100 µM in [6]. Also, the TGI in [7] was over 100 µM; in [8], 49.5 µM; in assay [9] it was over 100 µM; in assay [10], over 100 µM.
Turning to `COc1cc(C(=O)NC2c3ccccc3-c3ccccc32)c(N)cc1OCc1ccccc1`, the GI50 in assay [1] was 47 µM; in [2], 42.8 µM; in assay [3], 24.2 µM; in assay [4] it was over 100 µM; in assay [5], 69.7 µM; in [6], over 78.4 µM. For the same molecule, the GI50 was 14.4 µM in assay [7], 13.5 µM in assay [8], 15.9 µM in [9] and 97.5 µM in assay [10]. The TGI was over 100 µM in [1]; over 100 µM in assay [2]; over 87.3 µM in assay [3]; over 100 µM in assay [4]; over 100 µM in assay [5]; over 100 µM in [6]. Further, the TGI is 34.7 µM in [7], 34.7 µM in assay [8], over 100 µM in assay [9] and over 100 µM in [10].
For `NC(N)=N/N=C(/c1ccccc1)c1ccc(F)cc1`, the GI50 is 0.209 µM in assay [1]; 0.296 µM in [2]; 0.227 µM in assay [3]; 0.203 µM in [4]; 0.3 µM in assay [5]; 2.67 µM in assay [6]. In addition, the GI50 in assay [7] is 0.337 µM; in assay [8] it was 0.291 µM; in [9], 0.38 µM; in [10], 0.558 µM. The TGI in assay [1] is 0.506 µM; in [2] it was 12.1 µM; in assay [3], 0.621 µM; in assay [4], 0.834 µM; in [5] it was 2.63 µM; in [6], over 38.1 µM. For the same molecule, the TGI in assay [7] is 5.21 µM; in assay [8], 3.54 µM; in [9] it was 27.7 µM; in assay [10], 21.6 µM.
As to `CCCCCCCCCCCCCC(=S)NCCCC[C@H](NC(=O)OCc1ccccc1)C(=O)Nc1ccccc1`, the GI50 in assay [1] was 4.66 µM; in [2], 4.4 µM; in assay [3], 3.52 µM; in assay [4], 5.3 µM; in assay [5] it was 5.25 µM; in assay [6], 3.91 µM. Besides, the GI50 in assay [7] was 3.21 µM; in assay [8] it was 5.91 µM; in assay [9], 4.21 µM; in assay [10], 3.5 µM. In addition, the TGI in assay [1], in assay [2], in [3], in [4], in [5] and in assay [6] was over 100 µM in each case. The TGI in assay [7], in assay [8], in assay [9] and in [10] was over 100 µM throughout.
With `COc1ccc(C(=S)N2CCN(c3cccc(Cl)c3)CC2)cc1`, the GI50 is over 100 µM in [1]; 75 µM in assay [2]; over 100 µM in [3]; 62 µM in assay [4]; over 100 µM in [5]; over 100 µM in assay [6]. The GI50 in [7] is over 100 µM; in assay [8], over 100 µM; in assay [9], 72.8 µM; in assay [10], 45.4 µM. Also, the TGI in [1], in [2], in assay [3], in assay [4], in [5] and in [6] was over 100 µM each time. For the same molecule, the TGI in assay [7], in [8], in assay [9] and in [10] was over 100 µM throughout.
As for `O=C(Nc1nc2ccccc2s1)OCC(F)(F)F`, the GI50 in assay [1], in assay [2], in assay [3], in [4], in [5] and in [6] was over 100 µM each time. Also, the GI50 in assay [7], in assay [8], in [9] and in assay [10] was over 100 µM throughout. Further, the TGI in [1], in assay [2], in assay [3], in [4], in assay [5] and in [6] was over 100 µM throughout. Also, the TGI in assay [7], in assay [8], in assay [9] and in assay [10] was over 100 µM throughout.
Regarding `CC(C)(C)OC(=O)NC(Cc1ccccc1)C(=O)OCN1C(=O)C2C3C=CC(C2C1=O)C1C2C(=O)N(COC(=O)C(Cc4ccccc4)NC(=O)OC(C)(C)C)C(=O)C2C31` (stereo not given), the TGI was over 100 µM in assay [1]; over 100 µM in assay [2]; over 100 µM in assay [3]; over 100 µM in assay [4]; over 100 µM in assay [5]; 82.4 µM in [6]. For the same molecule, the TGI is over 100 µM in assay [7], over 64.2 µM in assay [8], over 100 µM in assay [9] and over 100 µM in [10].
`COc1cc2ncn(-c3cc(OCc4ccccc4Cl)c(C(N)=O)s3)c2cc1OC`: the GI50 was 0.164 µM in [1]; 0.0885 µM in assay [2]; 0.0867 µM in assay [3]; 0.0745 µM in assay [4]; 0.0921 µM in assay [5]; 0.118 µM in assay [6]. Besides, the GI50 in [7] is 0.224 µM; in assay [8], 0.102 µM; in assay [9], 0.114 µM; in assay [10], 0.341 µM. The TGI was over 25 µM in [1]; over 25 µM in [2]; 1.99 µM in assay [3]; 0.351 µM in assay [4]; over 25 µM in assay [5]; over 25 µM in assay [6]. In addition, the TGI in [7] was 10.4 µM; in [8] it was 4.22 µM; in assay [9], over 25 µM; in [10], over 25 µM.
As to `COc1ccc(-c2nn(-c3cccc(Cl)c3)cc2C2CC(c3ccccc3)=NN2C(C)=O)cc1` (stereo not given), the GI50 in assay [1] is 7.68 µM; in [2], over 100 µM; in [3], 5.42 µM; in assay [4], over 100 µM; in assay [5], 5.49 µM; in [6], over 100 µM. The GI50 in assay [7] is 3.15 µM; in [8], 6.49 µM; in [9], over 100 µM; in [10], over 100 µM. For the same molecule, the TGI in assay [1] is over 100 µM; in assay [2], over 100 µM; in [3], 45.1 µM; in [4], over 100 µM; in assay [5] it was over 100 µM; in assay [6], over 100 µM. Also, the TGI in assay [7] was 14.9 µM; in [8], 30.8 µM; in [9] it was over 100 µM; in [10], over 100 µM.
In the case of `C=C1CCC2C(/C=C(\C)CCC1O)OC(=O)C2C` (stereo not given), the GI50 is over 100 µM in assay [1]; 82.2 µM in [2]; over 100 µM in [3]; over 100 µM in assay [4]; over 100 µM in [5]; 19.6 µM in [6]. The GI50 is over 100 µM in assay [7], 23.2 µM in assay [8], over 100 µM in assay [9] and 90.4 µM in assay [10]. Besides, the TGI is over 100 µM in [1]; over 100 µM in assay [2]; over 100 µM in assay [3]; over 100 µM in [4]; over 100 µM in assay [5]; 58.2 µM in [6]. The TGI in assay [7], in [8], in [9] and in [10] was over 100 µM throughout.
Consider `Cc1ccc2c(C(C[N+](=O)[O-])c3cccs3)c(-c3ccccc3)[nH]c2c1` (stereo not given), for which the GI50 in assay [1] was 1.28 µM; in [2] it was 1.41 µM; in assay [3], 1.24 µM; in assay [4], 0.822 µM; in assay [5], 1.3 µM; in assay [6], 1.53 µM. For the same molecule, the GI50 in assay [7] is 1.72 µM; in assay [8], 1.16 µM; in assay [9], 1.16 µM; in assay [10] it was 2.05 µM. For the same molecule, the TGI in [1] was 5.57 µM; in assay [2], 12.8 µM; in assay [3], 4.75 µM; in assay [4] it was 2.14 µM; in assay [5] it was 6.54 µM; in assay [6] it was over 33.3 µM. For the same molecule, the TGI in [7] was 7.59 µM; in [8], 4.36 µM; in assay [9], over 33.3 µM; in assay [10], 23.7 µM.
`CCOc1ccc(S(=O)(=O)/N=C2\C=C(SCC(=O)O)C(=O)c3ccccc32)cc1`: the GI50 in [1] was 2.72 µM; in [2] it was 1.64 µM; in assay [3] it was 1.88 µM; in [4] it was 1.75 µM; in assay [5], 3.21 µM; in [6], 2.38 µM. Further, the GI50 in assay [7] is 3.1 µM; in assay [8], 1.8 µM; in assay [9], 3.35 µM; in [10], 2.05 µM. For the same molecule, the TGI in [1] came out at 8.12 µM; in assay [2] it was 3.68 µM; in assay [3], 12.2 µM; in assay [4], 3.63 µM; in [5], 13 µM; in assay [6], 6.06 µM. Besides, the TGI in assay [7] is 9.23 µM; in [8] it was 7.23 µM; in assay [9], 10.6 µM; in [10], 13.2 µM.
As for `COc1cc(/C=C\[N+](=O)[O-])ccc1O`, the GI50 in assay [1] was 2.05 µM; in assay [2], 1.63 µM; in assay [3], 1.9 µM; in assay [4], 2.16 µM; in assay [5], 2.98 µM; in assay [6], 2.76 µM. Also, the GI50 was 2.99 µM in assay [7], 1.91 µM in [8], 3.17 µM in assay [9] and 2.2 µM in [10]. The TGI stood at 4.98 µM in assay [1]; 4.28 µM in assay [2]; 3.36 µM in [3]; 5.98 µM in assay [4]; 10.6 µM in assay [5]; 7.23 µM in assay [6]. Further, the TGI in [7] amounted to 10.6 µM; in assay [8], 3.48 µM; in assay [9], 10.8 µM; in assay [10], 6.11 µM.
Turning to `CC(C)(C)c1cc(O)c(O)c(C(C)(C)C)c1`, the GI50 was 3.91 µM in assay [1]; 3.45 µM in assay [2]; 1.93 µM in assay [3]; 3.3 µM in assay [4]; 2.9 µM in assay [5]; 3.03 µM in assay [6]. Also, the GI50 in [7] was 4.35 µM; in [8] it was 4.4 µM; in assay [9], 2.47 µM; in assay [10], 3.17 µM. The TGI in [1] is 13.8 µM; in assay [2], 12.8 µM; in [3], 3.38 µM; in assay [4], 14.1 µM; in assay [5], 6.71 µM; in assay [6], 8.67 µM. The TGI in [7] came out at 16.1 µM; in assay [8], 13.5 µM; in assay [9], 7.44 µM; in [10], 7.69 µM.
With `CC(CO)(CO)N=Cc1cc(I)cc(I)c1O`, the TGI in assay [1] was determined as 39.3 µM; in [2], 46.3 µM; in assay [3], 29.2 µM; in assay [4], 40.3 µM; in assay [5] it was 44.6 µM; in assay [6] it was 47.5 µM. Besides, the TGI in assay [7] is 28.3 µM; in assay [8], 26.5 µM; in [9] it was 83.5 µM; in assay [10], over 100 µM.
